Structures can show the parent of a compound that is named as a salt.
Assays:
[1] = biological target: T1, recombinant human PLA2G2A (sPLA2) (Homo sapiens, UniProt P14555); assay: Oleic acid release from phospholipid-loaded stenfilcon A lenses in ATF with and without sPLA2 (digestion assay, LCMS); format: biochemical; conditions: 35±2° C., 4 hours; for Oleic acid peak area in ATF + sPLA2: ATF with 50 ppm recombinant human PLA2G2A; for Oleic acid peak area in ATF + sPLA2 / Oleic acid peak area in ATF: 4 mm piece of loaded stenfilcon A lens, 100 μL; for Oleic acid peak area in ATF: ATF without sPLA2
T1 construct: purchased Creative BioMart PLA2G2A-669H
T1 sequence (P14555 21-144): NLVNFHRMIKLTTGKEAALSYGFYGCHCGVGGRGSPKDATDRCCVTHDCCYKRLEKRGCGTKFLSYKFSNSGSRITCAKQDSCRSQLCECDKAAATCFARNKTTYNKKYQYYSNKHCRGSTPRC
Description: The phospholipids shown in Table 1 were obtain from Avanti Polar Lipids. 3 mg/ml loading solutions of the phospholipids shown in Table 1 were prepared by adding 2.4 mL ethanol to 9 mg of phospholipid, sonicating (up to 15 minutes) then adding 0.6 mL DI water and sonicating again (up to 15 minutes) to dissolve the phospholipid.
Hydrated contact lenses made from stenfilcon A were washed three times in 3 mL purified water for 30 minutes each time. Each washed lens was placed in 3 mL of a phospholipid loading solution and incubated at room temperature with gentle shaking at 75 rpm for 3 hours. The loaded lenses were then rinsed and hydrated in several exchanges of DI water. The lenses were packaged in a buffered saline contact lens packaging solution and autoclaved.
An artificial tear fluid (ATF) was prepared by adding the first three ingredients listed in Table 2 to a clean class vial and then adding 30 mL of the fourth ingredient.
After autoclave each lens was removed from its package and place in a 6 mL glass vial containing 5 mL of the ATF at room temperature on a shaker at 125 rpm overnight to elute any free oleic acid that may be present in the lens.
Each lens was rinsed in a 6 ml glass vial containing a fresh aliquot of 5 mL ATF for 30 minutes prior to running the digestion assay.
A 50 ppm solution of sPLA2 was prepared in ATF by adding 200 μl ATF to a tube containing 10 μg recombinant human PLA2G2A (Creative BioMart, Cat. No. PLA2G2A-669H). The solution is referred to as ATF+sPLA2. Two 4 mm pieces were cut from each lens. One piece of each lens was placed in a tube with 100 μL ATF and the other piece was placed in a tube containing 100 μL ATF+sPLA2. The tubes were incubated at 35±2° C. for 4 hours with no shaking.
50 μl of the release media from each lens at T=4 hr was transferred to HPLC vials and 500 μl isopropanol (IPA) was added and mixed well. T=0 hr HPLC vials were also prepared (50 μl ATF+500 μl IPA). All vials were sonicated for 15 minutes and centrifuged. The supernatant was removed for LCMS injection.
The supernatants were injected on an LCMS instrument equipped with an ACQUITY UPLC BEH C18 […], 2.1 mm×15 cm column and running a mobile phase gradient from 65% A to 90% B at a flow rate of 0.35 mL/min with A=40% acetonitrile in water with 10 mM ammonium acetate and 0.2% (v/v) ammonium hydroxide, and B=10% acetonitrile in IPA with 10 mM ammonium acetate and 0.2% (v/v) ammonium hydroxide. The mass spec detector is run at negative electrospray mode. The peaks for oleic acid (OA) in the supernatants were measured (m/z trace=281.24). The ratio of OA peak area in ATF with and without sPLA2 was calculated.

[2] = system: sPLA2 enzymes found in human tears; assay: Susceptibility to digestion by sPLA2 enzymes found in human tears when present in a silicone hydrogel contact lens body; format: biochemical; conditions: phospholipid present in a silicone hydrogel contact lens body
Source text: To achieve these and other advantages, and in accordance with the purposes of the present invention, as embodied and broadly described herein, the present invention, in part relates to a hydrogel contact lens comprising a polymeric lens body loaded with 2-oleoyl phospholipid. The 2-oleoyl phospholipid is advantageously susceptible to digestion by secretory phospholipase 2-acylhydrolase (sPLA2) enzymes found in human tears, especially group IIA secretory phospholipase 2-acylhydrolase (sPLA2-IIA). The 2-oleoyl phospholipid present in the contact lens body is advantageously susceptible to digestion by sPLA2 enzymes found in human tears, especially sPLA2-IIA when the 2-oleoyl phospholipid is present in the polymeric lens body of a silicone hydrogel contact lens, such as a stenfilcon A contact lens. […] For the avoidance of doubt, while the determination of whether a 2-oleoyl phospholipid is susceptible to digestion by sPLA2 enzymes may be carried out by loading the 2-oleoyl phospholipid to a stenfilcon A lens, the contact lens of the invention, including contact lenses comprising 2-oleoyl phospholipid that have been determined to be susceptible to digestion by sPLA2 enzymes, need not be stenfilcon A lenses and may be silicone hydrogel lenses of any formulation. […]

| Compound | Ratio of OA peak area in ATF with and without sPLA2 [1] | Oleic acid peak area in ATF + sPLA2 [1] | Oleic acid peak area in ATF [1] | Susceptibility to digestion by sPLA2 enzymes found in human tears [2] |
| --- | --- | --- | --- | --- |
| CCCCCCCC/C=C\CCCCCCCC(=O)OC[C@H](COP(=O)([O-])OCC[N+](C)(C)C)OC(=O)CCCCCCC/C=C\CCCCCCCC [DOPC, 1,2-dioleoyl-sn-glycero-3-phosphocholine, reference compound] | 1.2 | 125 | 102 | – |
| CCCCCCCCCCCCCC(=O)OC[C@H](COP(=O)([O-])OCC[N+](C)(C)C)OC(=O)CCCCCCCCCCCCC [DMPC, 1,2-dimyristoyl-sn-glycero-3-phosphocholine] | – | – | – | not be susceptible to digestion |
| CCCCCCCC/C=C\CCCCCCCC(=O)OC[C@H](COP(=O)(O)OC[C@H](N)C(=O)O)OC(=O)CCCCCCC/C=C\CCCCCCCC [DOPS, 1,2-dioleoyl-sn-glycero-3-phospho-L-serine (sodium salt)] | 16.4 | 1437 | 88 | – |

Further lines, results first:

| Ratio of OA peak area in ATF with and without sPLA2 [1] | Oleic acid peak area in ATF + sPLA2 [1] | Oleic acid peak area in ATF [1] | Susceptibility to digestion by sPLA2 enzymes found in human tears [2] | Compound |
| --- | --- | --- | --- | --- |
| 4.6 | 2127 | 463 | – | CCCCCCCC/C=C\CCCCCCCC(=O)OC[C@H](COP(=O)(O)OCCN)OC(=O)CCCCCCC/C=C\CCCCCCCC [DOPE, 1,2-dioleoyl-sn-glycero-3-phosphoethanolamine] |
| 279 | 9958 | 36 | – | CCCCCCCC/C=C\CCCCCCCC(=O)OC[C@H](COP(=O)([O-])OCC(O)CO)OC(=O)CCCCCCC/C=C\CCCCCCCC.[Na+] (mixture of isomers) [DOPG, 1,2-dioleoyl-sn-glycero-3-phospho-(1′-rac-glycerol) (sodium salt)] |

From patent US20240118559A1, “SUSTAINED RELEASE OF OLEIC ACID FROM CONTACT LENSES” (CooperVision International Limited, priority 2022, published 2024)
